Laboratory results published in paper PMC12311259, “Antifibrotic effects of specific targeting of the 5‐hydroxytryptamine 2B receptor (5‐HT2BR) in murine models and ex vivo models of scleroderma skin” (Arthritis & Rheumatology (Hoboken, N.j.), 2025).

Key:
[1] = molecular target: T1, Serotonin (5-Hydroxytryptamine) 5-HT1B (hu) (Homo sapiens, UniProt P28222); experiment: Receptor binding, Eurofins Panlabs 271200
T1 construct: Eurofins Panlabs 271200
Excerpt: (§1) Effects were considered significant if AM1476's mean value was three or more SDs above the vehicle control mean in the agonist assay or three or more SDs below the positive control agonist (5‐nM α‐methylserotonin) mean in the antagonist assay. AM1476 was screened for selectivity against approximately 200 targets using a Eurofins Panlabs Spectrum screen panel including enzymatic and receptor binding assays.

[2] = molecular target: T2, Serotonin (5-Hydroxytryptamine) 5-HT7 (hu) (Homo sapiens, UniProt P34969); experiment: Receptor binding, Eurofins Panlabs 272320
T2 construct: Eurofins Panlabs 272320
Excerpt: as §1

[3] = molecular target: T3, Adrenergic β2 (hu) (Homo sapiens, UniProt P07550); experiment: Functionality assay, Adenylyl Cyclase, Eurofins Panlabs 302150; assay type: cell-based
T3 construct: Eurofins Panlabs 302150
Excerpt: as §1

[4] = system: cGvHD-induced skin fibrosis; experiment: Sclerodermatous cGvHD mouse model (B10.D2 to BALB/c), skin fibrosis incl. RNASeq and immunofluorescence of skin; assay type: in vivo
Procedure: AM1476 was dissolved in sterile distilled water for the ex vivo and in vivo experiments. A concentration of 30 μM was applied for the ex vivo experiment. For the in vivo experiments, 1, 3, or 10 mg/kg was administered orally once or twice daily.
The B10.D2→BALB/c (H‐2d) minor histocompatibility antigen–mismatched model was performed as described.[9], [10] Briefly, female BALB/c (H‐2d) mice were purchased from Janvier. Male B10.D2 (H‐2d) mice were initially purchased from Jackson Laboratory. All mice were maintained in specific pathogen‐free conditions with sterile pellet food and water and a normal day–night cycle. For isolation of unfractionated bone marrow cells, tibial and femoral bones were prepared under sterile conditions. Phosphate buffered saline (PBS) was used to flush bone marrow cells from bone marrow cavities. Subsequently, bone marrow cells were filtered through 70‐μm nylon meshes (BD Biosciences), followed by erythrocyte hemolysis. The remaining bone marrow cells were kept on ice until transplantation. Transplantation of bone marrow cells and splenocytes was performed as follows: Recipient mice (BALB/c [H‐2d]) eight weeks of age received total body irradiation with 750 cGy. Six hours after irradiation, all BALB/c (H‐2d) recipients received bone marrow from either BALB/c (H‐2d) in a syngeneic transplantation manner or B10.D2 (H‐2d) in an allogeneic transplantation manner. For transplantation, 5 × 10[6] splenocytes and 2 × 10[6] bone marrow cells from donor mice were resuspended in 0.2 mL of PBS and injected via tail veins.[9], [10] To reflect the clinical situation with treatment initiation upon clinical signs of chronic graft‐versus‐host disease (cGvHD), treatment was started 21 days after bone marrow transplantation (BMT) and thus after the first clinically detectable manifestations of cGvHD in allogeneically transplanted mice. The outcome of treatment was analyzed seven weeks after transplantation. Eight mice per group were analyzed.
Mice were monitored clinically on a daily basis for behavior, activity, texture of the fur, weight, and consistency of the stool.[13] After the mice were killed, a gross macroscopic evaluation of the lungs and the skin was performed.
Recipient mice were clinically monitored on a daily basis from the day of transplantation to the indicated days after transplantation to determine the incidence and severity of cutaneous cGvHD as well as mobility, diarrhea, and weight loss.[10], [14] The following scoring system for cutaneous cGvHD was used: healthy appearance = 0; skin lesions with alopecia <1 cm[2] in area = 1; skin lesions with alopecia 1 to 2 cm[2] in area = 2; and skin lesions with alopecia >2 cm[2] in area = 3.
Skin samples were fixed in 4% formalin for six hours and embedded in paraffin. Five‐micrometer sections were cut and stained with hematoxylin and eosin (H&E). The dermal thickness was quantified on H&E‐stained sections using images captured with a light microscope (Nikon eclipse 80i) at 100‐fold magnification by manually measuring the distance between the epidermal‐dermal junction and the dermal‐subcutaneous fat junction at four sites per mouse.[15], [16] For lung samples, the whole left lung was fixed in 4% formalin for six hours and embedded in paraffin. Five‐micrometer sections were cut and stained with trichrome and sirius red. Histologic readouts were evaluation of the fibrotic area as the percentage of the total lung area in sirius red–stained sections (two sections per mouse) and quantification of pulmonary changes using the Ashcroft score (four sections per mouse).[17], [18]
The amount of collagen protein in skin and lung samples was determined by hydroxyproline assay.[19], [20] After digestion in 6 M HCl for three hours at 120°C, the pH of the samples was adjusted to a pH range of 6–7 with 6 M NaOH. Afterward, 0.06 M chloramine T was added to each sample and incubated for 20 minutes at room temperature.

[5] = system: healthy individuals; experiment: Phase 1 clinical trial, safety, tolerability and pharmacokinetic profile (NCT04691115); assay type: in vivo, human; details: for Any adverse event / Depressed level of consciousness / Dizziness / Gastrointestinal disorders / Headache / Nausea / Nervous system disorders / Presyncope / Serious adverse event / Syncope: fasted, N = 6
Excerpt: These findings prompted us to perform a phase 1 clinical trial investigating safety, tolerability, and the pharmacokinetic profile of AM1476 in healthy individuals (ClinicalTrials.gov identifier NCT04691115). […] An excerpt of the summary of adverse events is found in Supplementary Table S5. […] The anticipated clinical efficacy exposure was well covered by investigated doses.

[6] = Pharmacokinetic profile (no method given)
[7] = treatment from day 21 after BMT, vs vehicle-treated mice seven weeks after BMT

T3 sequence (P07550 whole entry): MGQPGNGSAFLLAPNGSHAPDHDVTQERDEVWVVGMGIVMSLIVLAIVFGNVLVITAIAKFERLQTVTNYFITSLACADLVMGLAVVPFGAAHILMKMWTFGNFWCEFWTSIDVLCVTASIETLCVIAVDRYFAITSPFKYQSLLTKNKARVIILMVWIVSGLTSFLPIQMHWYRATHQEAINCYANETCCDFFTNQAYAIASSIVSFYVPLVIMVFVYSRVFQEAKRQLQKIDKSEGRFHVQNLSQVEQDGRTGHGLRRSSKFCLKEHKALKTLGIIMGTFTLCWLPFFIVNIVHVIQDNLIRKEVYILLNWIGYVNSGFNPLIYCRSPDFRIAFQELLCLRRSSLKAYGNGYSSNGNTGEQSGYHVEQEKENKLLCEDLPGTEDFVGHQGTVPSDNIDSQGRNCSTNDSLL
T2 sequence (P34969 whole entry): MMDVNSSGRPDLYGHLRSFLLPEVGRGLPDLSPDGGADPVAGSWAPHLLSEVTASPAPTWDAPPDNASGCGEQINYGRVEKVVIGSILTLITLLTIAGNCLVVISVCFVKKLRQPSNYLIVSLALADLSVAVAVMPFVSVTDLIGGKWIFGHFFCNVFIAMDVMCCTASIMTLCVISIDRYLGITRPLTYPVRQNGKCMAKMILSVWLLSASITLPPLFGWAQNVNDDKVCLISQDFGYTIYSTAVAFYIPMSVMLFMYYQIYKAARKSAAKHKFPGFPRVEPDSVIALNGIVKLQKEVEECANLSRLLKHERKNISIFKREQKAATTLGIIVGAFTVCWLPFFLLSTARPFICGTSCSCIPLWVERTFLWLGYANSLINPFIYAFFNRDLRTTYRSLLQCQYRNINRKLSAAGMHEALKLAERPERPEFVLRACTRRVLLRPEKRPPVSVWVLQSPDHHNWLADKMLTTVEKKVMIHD
T1 sequence (P28222 whole entry): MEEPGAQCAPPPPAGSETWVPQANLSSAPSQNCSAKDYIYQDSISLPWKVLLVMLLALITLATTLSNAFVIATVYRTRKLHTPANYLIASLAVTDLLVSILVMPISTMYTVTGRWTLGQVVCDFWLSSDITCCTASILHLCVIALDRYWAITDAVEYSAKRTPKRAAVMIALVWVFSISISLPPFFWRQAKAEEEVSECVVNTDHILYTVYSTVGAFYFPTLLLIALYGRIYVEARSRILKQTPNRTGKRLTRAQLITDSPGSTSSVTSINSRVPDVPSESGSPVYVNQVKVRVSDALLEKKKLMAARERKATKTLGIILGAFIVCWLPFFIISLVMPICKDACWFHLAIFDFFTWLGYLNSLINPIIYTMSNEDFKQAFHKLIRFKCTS

C[C@@H]1CN(C(=N)N)N=C1c1ccc(F)cc1O [AM1476]
% Inhibition at 10 µM, 5-HT1B (hu) [1]: 19%
% Inhibition at 1 µM, 5-HT7 (hu) ([2]; 1 µM (value in brackets)): 39%
% Inhibition at 10 µM, 5-HT7 (hu) ([2]; 10 µM): 91%
IC50 [3]: 154 µM
agonistic activity, Adrenergic β2 ([3]; at 300 µM): No significant agonistic activity at 300 µM
antifibrotic effects, comparison of doses ([4]; 10 mg/kg bid and 10 mg/kg qd (comparable to each other) vs 1 mg/kg bid): more pronounced than with 1 mg/kg bid
hydroxyproline content, skin, vs mice killed after three weeks ([4]; 10 mg/kg qd): significant reduction
number of CD45+ leukocytes in skin ([4]; all doses): none of the concentrations of AM1476 reduced
myofibroblast counts vs mice killed three weeks after BMT ([4]; all three doses): significantly lower
tolerability (clinical examination, gross necropsy, histology) ([4]; all three doses (1 mg/kg bid, 10 mg/kg qd, 10 mg/kg bid), oral): well tolerated without obvious signs of toxicity
AAM (alternatively activated M2 macrophage) counts in the skin ([4]; all three doses, statistically significant for 10 mg/kg qd and 10 mg/kg bid): reduction of AAM accumulation
accumulation of hydroxyproline, skin [4, 7]: reduced
dermal thickening [4, 7]: reduced
myofibroblast differentiation, skin [4, 7]: reduced
Any adverse event ([5]; 375 mg BID): 2 (33.3%) no. of subjects (%)
Depressed level of consciousness ([5]; 375 mg BID): 0 no. of subjects (%)
Dizziness ([5]; 375 mg BID): 1 (16.7%) no. of subjects (%)
Gastrointestinal disorders ([5]; 375 mg BID): 2 (33.3%) no. of subjects (%)
Headache ([5]; 375 mg BID): 2 (33.3%) no. of subjects (%)
Nausea ([5]; 375 mg BID): 2 (33.3%) no. of subjects (%)
Nervous system disorders ([5]; 375 mg BID): 2 (33.3%) no. of subjects (%)
Presyncope ([5]; 375 mg BID): 0 no. of subjects (%)
Serious adverse event ([5]; 375 mg BID): 0 no. of subjects (%)
Syncope ([5]; 375 mg BID): 0 no. of subjects (%)
Any adverse event ([5]; 500 mg BID): 4 (66.7%) no. of subjects (%)
Depressed level of consciousness ([5]; 500 mg BID): 0 no. of subjects (%)
Dizziness ([5]; 500 mg BID): 1 (16.7%) no. of subjects (%)
Gastrointestinal disorders ([5]; 500 mg BID): 1 (16.7%) no. of subjects (%)
Headache ([5]; 500 mg BID): 1 (16.7%) no. of subjects (%)
Nausea ([5]; 500 mg BID): 1 (16.7%) no. of subjects (%)
Nervous system disorders ([5]; 500 mg BID): 2 (33.3%) no. of subjects (%)
Presyncope ([5]; 500 mg BID): 0 no. of subjects (%)
Serious adverse event ([5]; 500 mg BID): 0 no. of subjects (%)
Syncope ([5]; 500 mg BID): 0 no. of subjects (%)
serious adverse events ([5]; healthy individuals): no serious adverse events were reported
severity of adverse events ([5]; healthy individuals): most of the adverse events were mild in severity
tolerability ([5]; healthy individuals): well tolerated
time to steady state ([5]; multiple-dose period): by day two
absorption ([5]; single and multiple oral administration, fasted state): rapidly absorbed
distribution to the brain [6]: no preference to distribute to the brain
oral bioavailability [6]: orally bioavailable
